This passage reports killing of larvae and mortality results from patent US20230103237A1, “BIODEGRADABLE PARTICLES AND BIODEGRADABLE PARTICLES IN CONTACT WITH ACTIVE INGREDIENTS” (The United States of America, as represented by the …, priority 2021, published 2023).

In the test the test system is Culex quinquefasciatus mosquito larvae. Briefly: whole plant or invertebrate. The class given is in vivo. From the text:
FIG. 5 depicts a graph of the percentage of mosquito larvae death as a function of time for the different zein-silver particle solutions. This graph includes the results from five (5) trials with twenty (20) 3rd instar or 4th instar larvae. The Y axis presents the percentage death (Lethal %). The X axis presents the time after treatment in hours. Circles represent 100 ppm zein-silver particles; triangles represent 1 ppm zein-silver particles; diamonds represent 0.1 ppm zein-silver particles.
The larvicidal effect of the zein-silver particles prepared above was tested on Culex quinquefasciatus mosquito species.

For the setting “0.2 ppm, after 90 hours”, `[BH4-].[Na+]` [sodium borohydride] gave a killing of larvae of 8%.

Consider `OCC(O)CO` [Glycerol, glycerol], for which the mortality at 0.2 ppm (Culex quinquefasciatus, 40 h, read-out: Larval Mortality (%)) was determined as 0%.

For orientation: mortality means the percentage killed.
